Where a chain is given by its changes, count along the chain named.
Experiments:
Assay type in all cases: binding
[1] = target: T1, olfactory marker protein (OMP) (Mus musculus, UniProt Q64288); assay: BRET from Rluc-OMP to fluorescent 8NBD-cAMP, dose-response (EC50 taken as apparent Kd)
T1 construct: Rluc-OMP fusion, wild type
T1 sequence (Q64288 2-163): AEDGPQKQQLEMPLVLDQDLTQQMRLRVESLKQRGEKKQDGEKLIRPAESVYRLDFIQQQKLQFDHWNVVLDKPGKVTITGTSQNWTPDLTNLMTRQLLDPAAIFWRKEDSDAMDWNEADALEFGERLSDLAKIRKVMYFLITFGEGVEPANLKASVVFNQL

[2] = target: T2, olfactory marker protein (OMP) (Mus musculus, UniProt Q64288, G126E); assay: BRET from mutant Rluc-OMP to 8NBD-cAMP
T2 construct: Rluc-OMP fusion, G126E mutant
T2 sequence (Q64288 2-163 G126E): T1 sequence (Q64288 2-163) with G125E

[3] = target: T1, olfactory marker protein (OMP); assay: competitive BRET displacement of 8NBD-cAMP from Rluc-OMP in HEK293T lysate

Nc1ncnc2c1nc(SCCNc1ccc([N+](=O)[O-])c3nonc13)n2[C@@H]1O[C@@H]2COP(=O)(O)O[C@H]2[C@H]1O [8NBD-cAMP]
Kd [1]: ~1900 nM
BRET from mutant Rluc-OMP to 8NBD-cAMP [2]: pocket A-mutated Rluc-OMP^G126E retained the low-affinity interaction, whereas the pocket B mutants lost their interaction with 8NBD-cAMP

Nc1nc2c(ncn2[C@@H]2O[C@@H]3COP(=O)(O)O[C@H]3[C@H]2O)c(=O)[nH]1 [cGMP]
IC50 [3]: 11 µM
